In the test the test system is HCV genotype 1a replicon cell line. The test can be described thus: EC50 in HCV genotype 1a replicon cell line. It is filed as cell-based. The settings on record: Hepatitis C virus, read-out: EC50 value for the HCV genotype 1a replicon cell line. On the technique in general: In antiviral work, replicon cells carry a viral genome segment that copies itself.
What is called EC50 is the midpoint of the concentration-response curve. Turning to `Cc1cnc(C(=O)N[C@H]2CCCCC/C=C\[C@@H]3C[C@@]3(C(=O)NS(=O)(=O)C3CC3)NC(=O)[C@@H]3C[C@@H](Oc4nc5ccccc5c5ccccc45)CN3C2=O)cn1` [Compound 1, (2R,6S,13aS,14aR,16aS,Z)—N-(cyclopropylsulfonyl)-6-(5-methylpyrazine-2-carboxamido)-5,16-dioxo-2-(phenanthridin-6-yloxy)-1,2,3,5,6,7,8,9,10,11,13a,14,14a,15,16,16a-hexadecahydrocyclopropa[e]pyrrolo[1,2-a][1,4]diazacyclopentadecine-14a-carboxamide], the EC50 stood at 0.9 nM. To `COc1c(-c2ccc3cc(NS(C)(=O)=O)ccc3c2)cc(-n2ccc(=O)[nH]c2=O)cc1C(C)(C)C` [Compound 2, N-(6-(3-tert-butyl-5-(2,4-dioxo-3,4-dihydropyrimidin-1(2H)-yl)-2-methoxyphenyl)naphthalen-2-yl)methanesulfonamide] belongs 7.7 nM; to `COC(=O)N[C@H](C(=O)N1CCC[C@H]1C(=O)Nc1ccc([C@@H]2CC[C@@H](c3ccc(NC(=O)[C@@H]4CCCN4C(=O)[C@@H](NC(=O)OC)C(C)C)cc3)N2c2ccc(C(C)(C)C)cc2)cc1)C(C)C` [Compound 4], 0.01 nM.

The record behind these values is patent US8685984B2, “Methods for treating HCV” (AbbVie Inc., priority 2011, dated 2014).
